{"source": "the NIST ThermoML archive (doi:10.1021/je060469v)", "key": {"[1]": {"settings": "Liquid; for mass density: 298.15 K, 101.33 kPa"}, "[2]": {"test": "refractive index (Na D-line) (dimensionless)", "settings": "298.15 K; 101.33 kPa; Liquid; Standard Abbe refractometry"}}, "note": "Numbers after ± are expanded uncertainties."}
{"smiles": "CCCC(=O)OC", "note": "[methyl butanoate]", "values": [{"measurement": "mass density", "setting": "[1]", "value": "892.16 ± 0.34", "unit": "kg/m3"}, {"measurement": "vapor or sublimation pressure", "setting": "[1]; 372.31 K", "value": "93.32 ± 1.9", "unit": "kPa"}, {"measurement": "refractive index", "setting": "[2]", "value": "1.3847 ± 0.0007"}]}
{"smiles": "CCCCCC(=O)OC", "note": "[methyl hexanoate]", "values": [{"measurement": "mass density", "setting": "[1]", "value": "879.47 ± 0.36", "unit": "kg/m3"}, {"measurement": "vapor or sublimation pressure", "setting": "[1]; 419.67 K", "value": "93.32 ± 2.4", "unit": "kPa"}, {"measurement": "refractive index", "setting": "[2]", "value": "1.4048 ± 0.0007"}]}
{"smiles": "CCCCC(=O)OC", "note": "[methyl pentanoate]", "values": [{"measurement": "mass density", "setting": "[1]", "value": "884.8 ± 0.35", "unit": "kg/m3"}, {"measurement": "vapor or sublimation pressure", "setting": "[1]; 396.65 K", "value": "93.32 ± 2.4", "unit": "kPa"}, {"measurement": "refractive index", "setting": "[2]", "value": "1.3971 ± 0.0007"}]}
{"smiles": "CCC#N", "note": "[propanenitrile]", "values": [{"measurement": "mass density", "setting": "[1]", "value": "776.85 ± 0.51", "unit": "kg/m3"}, {"measurement": "vapor or sublimation pressure", "setting": "[1]; 367.78 K", "value": "93.32 ± 1.9", "unit": "kPa"}, {"measurement": "refractive index", "setting": "[2]", "value": "1.36368 ± 0.00073"}]}
